Here are results for nine compounds from US7368454B2, “(3,4-dihydro-quinazolin-2-yl)-aryl-amines” (Hoffmann-La Roche Inc., priority 2005, dated 2008).

A word on the Ki: it is a measure of affinity in units of concentration, obtained from inhibition or displacement.

T1 sequence (P47898 whole entry): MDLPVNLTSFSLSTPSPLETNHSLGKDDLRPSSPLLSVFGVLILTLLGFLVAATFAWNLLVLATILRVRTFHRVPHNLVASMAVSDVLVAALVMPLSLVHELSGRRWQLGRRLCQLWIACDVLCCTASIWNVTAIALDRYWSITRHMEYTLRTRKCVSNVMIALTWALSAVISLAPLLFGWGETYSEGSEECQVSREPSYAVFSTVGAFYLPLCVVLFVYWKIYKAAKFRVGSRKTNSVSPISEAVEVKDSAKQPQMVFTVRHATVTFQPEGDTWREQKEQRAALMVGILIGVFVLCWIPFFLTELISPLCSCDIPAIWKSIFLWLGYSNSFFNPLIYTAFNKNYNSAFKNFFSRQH

This test concerns the target T1, recombinant human 5-HT5A receptor (Homo sapiens, UniProt P47898).
T1 construct: expressed in transfected cells; host or cells: Human Embryonic Kidney-EBNA (HEK-EBNA) cells, transient expression, membranes
Kind of test: [3H]LSD radioligand binding assay. Particulars: [3H]LSD approx. 1 nM; membranes from HEK-EBNA cells transiently expressing 5-HT5A; SPA; Ki from IC50 by Cheng-Prussoff equation. Here is the method:
A [^3H]LSD radioligand binding assay was used to determine the affinity of the compounds for the recombinant human 5-HT5A receptor, in membranes from transiently (cDNA) expressed 5-HT 5A receptors in Human Embryonic Kidney-EBNA (HEK-EBNA) cells. Assay buffer consisted of Tris (50 mM) buffer containing 1 mM EGTA, 10 mM MgCl2 (pH 7.4) and 10 μM pargyline. The binding assay was carried out in 96-well-plates in the presence of [^3H]LSD (approximately 1 nM), approximately 2 μg/well of membrane protein, and 0.5 mg of Ysi-poly-1-lysine SPA beads in a final volume of 200 μl of buffer. Non-specific binding was defined using methiothepin 2 μM. Compounds were tested at 10 concentrations. All assays were conducted in duplicate and repeated at least two times. Assay plates were incubated for 120 min at room temperature before centrifugation. Bound ligand was determined using a Packard Topcount scintillation counter. IC50 values were calculated using a non-linear curve fitting program and Ki values calculated using the Cheng-Prussoff equation.
Consider `Cc1cccc2c1CNC(Nc1cccc(C(F)(F)F)c1)=N2` [Example 1, (5-Methyl-3,4-dihydro-quinazolin-2-yl)-(3-trifluoromethyl-phenyl)-amine], for which the Ki came to 85 nM.
Regarding `FC(F)(F)c1cccc(NC2=Nc3ccccc3CN2)c1` [Example 2, (3,4-Dihydro-quinazolin-2-yl)-(3-trifluoromethyl-phenyl)-amine], the Ki was determined as 91 nM.
On to `FC(F)(F)c1cccc(NC2=Nc3cccc(Cl)c3CN2)c1` [Example 3, (5-Chloro-3,4-dihydro-quinazolin-2-yl)-(3-trifluoromethyl-phenyl)-amine], for which the Ki was 118 nM.
On to `Cc1cccc(NC2=Nc3ccccc3CN2)c1` [Example 4, (3,4-Dihydro-quinazolin-2-yl)-m-tolyl-amine], for which the inhibition constant Ki was 143 nM.
On to `c1ccc2c(c1)CNC(Nc1ccc3c(c1)CCC3)=N2` [Example 5, (3,4-Dihydro-quinazolin-2-yl)-indan-5-yl-amine], for which the Ki was determined as 149 nM.
For `c1ccc2c(c1)CNC(Nc1cccc3ccccc13)=N2` [Example 6, (3,4-Dihydro-quinazolin-2-yl)-naphthalen-1-yl-amine], the Ki stood at 155 nM.
Turning to `Clc1cccc(NC2=Nc3ccccc3CN2)c1` [Example 10, (3-Chloro-phenyl)-(3,4-dihydro-quinazolin-2-yl)-amine], the Ki is 300 nM.
`Clc1ccc(NC2=Nc3ccccc3CN2)cc1` [Example 15, (4-Chloro-phenyl)-(3,4-dihydro-quinazolin-2-yl)-amine]: the Ki came out at 990 nM.
With `Fc1ccccc1NC1=Nc2ccccc2CN1` [Example 16, (3,4-Dihydro-quinazolin-2-yl)-(2-fluoro-phenyl)-amine; hydriodide], the Ki was determined as 1000 nM.
